Measurements reported in patent US20260262643A1, “HERBICIDAL BENZOXAZINES” (FMC CORPORATION, priority 2022, published 2026).

Legend:
[1] = test system: barnyardgrass; assay: Test C preemergence; assay type: in vivo, Echinochloa crusgalli; conditions: 0 to 100 scale (0 no effect, 100 complete control); for Plant response rating, Barnyardgrass: Preemergence, 500 g ai/ha, visual rating after 10 days; for Barnyardgrass plant response rating: Test C, preemergence, 125 g ai/ha
Summary of the method: (§1)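 Visual injury score, 0–100 (100 = complete control), taken 10 days after treatment relative to untreated controls. Pre: directed spray onto soil over sown seeds. Post: foliar spray at one- to two-leaf stage, 2–10 cm. Solvent/surfactant formulation; loam–sand soil; greenhouse.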

[2] = test system: soybean; assay: Test C postemergence; assay type: in vivo, Glycine max; conditions: 10 days
Summary of the method: as §1

[3] = test system: galium; assay: Test C postemergence; assay type: in vivo, Galium aparine; conditions: 10 days
Summary of the method: as §1

[4] = test system: pigweed, palmer; assay: Test C preemergence; assay type: in vivo, Amaranthus palmeri; conditions: 0 to 100 scale (0 no effect, 100 complete control); for Plant response rating, Pigweed, Palmer: Preemergence, 500 g ai/ha, visual rating after 10 days; for Pigweed, Palmer plant response rating: Test C, preemergence, 125 g ai/ha
Summary of the method: as §1

[5] = test system: kochia; assay: Test C postemergence; assay type: in vivo, Bassia scoparia; conditions: 10 days
Summary of the method: as §1

[6] = test system: sedge, umbrella; assay: Test D flooded paddy test; assay type: in vivo, Cyperus difformis; conditions: 250 g ai/ha, applied to paddy water, visual rating after 13 to 14 days, scale 0 to 100 (0 no effect, 100 complete control)
Experimental: (§2) Plant species in the flooded paddy test selected from barnyardgrass (Echinochloa crus-galli), ducksalad (Heteranthera limosa), rice (Oryza sativa), and sedge, umbrella (small-flower umbrella sedge, Cyperus difformis) were grown to the 2-leaf stage for testing. At time of treatment, test pots were flooded to 3 cm above the soil surface, treated by application of test compounds directly to the paddy water, and then maintained at that water depth for the duration of the test. Treated plants and controls were maintained in a greenhouse for 13 to 14 days, after which time all species were compared to controls and visually evaluated. Plant response ratings, summarized in Table D, are based on a scale of 0 to 100 where 0 is no effect and 100 is complete control. A dash (-) response means no test result.

[7] = test system: barnyardgrass; assay: Test C postemergence; assay type: in vivo, Echinochloa crusgalli; conditions: 10 days
Summary of the method: as §1

[8] = test system: oat, wild; assay: Test C preemergence; assay type: in vivo, Avena fatua; conditions: 0 to 100 scale (0 no effect, 100 complete control); for Plant response rating, Oat, Wild: Preemergence, 500 g ai/ha, visual rating after 10 days; for Oat, Wild plant response rating: Test C, preemergence, 125 g ai/ha
Summary of the method: as §1

[9] = test system: oat, wild; assay: Test C postemergence; assay type: in vivo, Avena fatua; conditions: 10 days
Summary of the method: as §1

[10] = test system: corn; assay: Test C preemergence; assay type: in vivo, Zea mays; conditions: 0 to 100 scale (0 no effect, 100 complete control); for Plant response rating, Corn: Preemergence, 500 g ai/ha, visual rating after 10 days; for Corn plant response rating: Test C, preemergence, 125 g ai/ha
Summary of the method: as §1

[11] = test system: ryegrass, Italian; assay: Test C postemergence; assay type: in vivo, Lolium multiflorum; conditions: 10 days
Summary of the method: as §1

[12] = test system: kochia; assay: Test C preemergence; assay type: in vivo, Bassia scoparia; conditions: 0 to 100 scale (0 no effect, 100 complete control); for Plant response rating, Kochia: Preemergence, 500 g ai/ha, visual rating after 10 days; for Kochia plant response rating: Test C, preemergence, 125 g ai/ha
Summary of the method: as §1

[13] = test system: soybean; assay: Test C preemergence; assay type: in vivo, Glycine max; conditions: 0 to 100 scale (0 no effect, 100 complete control); for Plant response rating, Soybean: Preemergence, 500 g ai/ha, visual rating after 10 days; for Soybean plant response rating: Test C, preemergence, 125 g ai/ha
Summary of the method: as §1

[14] = test system: pigweed, palmer; assay: Test C postemergence; assay type: in vivo, Amaranthus palmeri; conditions: 10 days
Summary of the method: as §1

[15] = test system: blackgrass; assay: Test C postemergence; assay type: in vivo, Alopecurus myosuroides; conditions: 10 days
Summary of the method: as §1

[16] = test system: wheat; assay: Test C preemergence; assay type: in vivo, Triticum aestivum; conditions: 0 to 100 scale (0 no effect, 100 complete control); for Plant response rating, Wheat: Preemergence, 500 g ai/ha, visual rating after 10 days; for Wheat plant response rating: Test C, preemergence, 125 g ai/ha
Summary of the method: as §1

[17] = test system: corn; assay: Test C postemergence; assay type: in vivo, Zea mays; conditions: 10 days
Summary of the method: as §1

[18] = test system: blackgrass; assay: Test C preemergence; assay type: in vivo, Alopecurus myosuroides; conditions: 0 to 100 scale (0 no effect, 100 complete control); for Plant response rating, Blackgrass: Preemergence, 500 g ai/ha, visual rating after 10 days; for Blackgrass plant response rating: Test C, preemergence, 125 g ai/ha
Summary of the method: as §1

[19] = test system: ragweed; assay: Test C preemergence; assay type: in vivo, Ambrosia artemisiifolia; conditions: 0 to 100 scale (0 no effect, 100 complete control); for Plant response rating, Ragweed: Preemergence, 500 g ai/ha, visual rating after 10 days; for Ragweed plant response rating: Test C, preemergence, 125 g ai/ha
Summary of the method: as §1

[20] = test system: ragweed; assay: Test C postemergence; assay type: in vivo, Ambrosia artemisiifolia; conditions: 10 days
Summary of the method: as §1

[21] = test system: ryegrass, Italian; assay: Test C preemergence; assay type: in vivo, Lolium multiflorum; conditions: 0 to 100 scale (0 no effect, 100 complete control); for Plant response rating, Ryegrass, Italian: Preemergence, 500 g ai/ha, visual rating after 10 days; for Ryegrass, Italian plant response rating: Test C, preemergence, 125 g ai/ha
Summary of the method: as §1

[22] = test system: green foxtail; assay: Test C preemergence; assay type: in vivo, Setaria viridis; conditions: 0 to 100 scale (0 no effect, 100 complete control); for Plant response rating, Foxtail, Green: Preemergence, 500 g ai/ha, visual rating after 10 days; for Foxtail, Green plant response rating: Test C, preemergence, 125 g ai/ha
Summary of the method: as §1

[23] = test system: barnyardgrass; assay: Test D flooded paddy test; assay type: in vivo, Echinochloa crus-galli; conditions: 250 g ai/ha, applied to paddy water, visual rating after 13 to 14 days, scale 0 to 100 (0 no effect, 100 complete control)
Experimental: as §2

[24] = test system: ducksalad; assay: Test D flooded paddy test; assay type: in vivo, Heteranthera limosa; conditions: 250 g ai/ha, applied to paddy water, visual rating after 13 to 14 days, scale 0 to 100 (0 no effect, 100 complete control)
Experimental: as §2

[25] = test system: wheat; assay: Test C postemergence; assay type: in vivo, Triticum aestivum; conditions: 10 days
Summary of the method: as §1

[26] = test system: rice; assay: Test D flooded paddy test; assay type: in vivo, Oryza sativa; conditions: 250 g ai/ha, applied to paddy water, visual rating after 13 to 14 days, scale 0 to 100 (0 no effect, 100 complete control)
Experimental: as §2

[27] = test system: horseweed; assay: Test C postemergence; assay type: in vivo, Erigeron canadensis; conditions: 10 days
Summary of the method: as §1

[28] = 125 g ai/ha, postemergence, 0 to 100 scale, 0 no effect, 100 complete control
[29] = Postemergence, 500 g ai/ha, visual 0 to 100 scale (0 no effect, 100 complete control)

Cc1ccc(-n2cnc(C(C)(C)O)n2)cc1C(=O)N1C[C@H](C)Oc2c(C)cccc21 [Compound 256]
90: Plant response rating, Barnyardgrass [7, 29] | Plant response rating, Oat, Wild [8] | Oat, Wild plant response rating [8] | Plant response rating, Oat, Wild [9, 28] | Plant response rating, Oat, Wild [9, 29] | Plant response rating, Corn [10] | Plant response rating, Ryegrass, Italian [11, 28] | Plant response rating, Kochia [12] | Plant response rating, Soybean [13] | Plant response rating, Blackgrass [15, 28] | Plant response rating, Blackgrass [15, 29] | Plant response rating, Wheat [16] | Plant response rating, Corn [17, 28] | Plant response rating, Corn [17, 29] | Plant response rating, Blackgrass [18] | Plant response rating, Ragweed [19] | Ryegrass, Italian plant response rating [21] | Plant response rating, Wheat [25, 29]
40: Plant response rating, Horseweed [27, 29]
80: Plant response rating, Kochia [5, 29] | Kochia plant response rating [12] | Plant response rating, Pigweed, Palmer [14, 28] | Wheat plant response rating [16] | Plant response rating, Ragweed [20, 29] | Plant response rating, Wheat [25, 28]
60: Plant response rating, Kochia [5, 28] | Plant response rating, Barnyardgrass [7, 28]
35: Plant response rating, Rice (Flood) [26]
45: Plant response rating, Barnyardgrass (Flood) [23]
30: Plant response rating, Horseweed [27, 28]
98: Plant response rating, Sedge, Umbrella (Flood) [6] | Plant response rating, Ducksalad (Flood) [24]
70: Blackgrass plant response rating [18] | Ragweed plant response rating [19] | Plant response rating, Ragweed [20, 28]
100: Plant response rating, Barnyardgrass [1] | Barnyardgrass plant response rating [1] | Plant response rating, Soybean [2, 28] | Plant response rating, Soybean [2, 29] | Plant response rating, Galium [3, 28] | Plant response rating, Galium [3, 29] | Plant response rating, Pigweed, Palmer [4] | Pigweed, Palmer plant response rating [4] | Plant response rating, Ryegrass, Italian [11, 29] | Soybean plant response rating [13] | Plant response rating, Pigweed, Palmer [14, 29] | Plant response rating, Ryegrass, Italian [21] | Plant response rating, Foxtail, Green [22] | Foxtail, Green plant response rating [22]
50: Corn plant response rating [10]

CCc1ncn(-c2ccc(OC)c(C(=O)N3C[C@H](COC)Oc4c(Cl)cccc43)c2)n1 [Compound 231]
70: Plant response rating, Soybean [13] | Plant response rating, Corn [17, 28] | Plant response rating, Ragweed [20, 28] | Plant response rating, Ragweed [20, 29] | Ryegrass, Italian plant response rating [21]
80: Plant response rating, Kochia [5, 28] | Plant response rating, Barnyardgrass [7, 28] | Plant response rating, Oat, Wild [8] | Plant response rating, Blackgrass [15, 28] | Plant response rating, Wheat [16]
0: Plant response rating, Rice (Flood) [26]
50: Plant response rating, Oat, Wild [9, 28] | Ragweed plant response rating [19] | Plant response rating, Wheat [25, 28]
40: Oat, Wild plant response rating [8] | Wheat plant response rating [16]
100: Plant response rating, Barnyardgrass [1] | Plant response rating, Soybean [2, 28] | Plant response rating, Soybean [2, 29] | Plant response rating, Galium [3, 28] | Plant response rating, Galium [3, 29] | Plant response rating, Pigweed, Palmer [4] | Pigweed, Palmer plant response rating [4] | Plant response rating, Sedge, Umbrella (Flood) [6] | Plant response rating, Ryegrass, Italian [11, 29] | Plant response rating, Kochia [12] | Plant response rating, Foxtail, Green [22] | Foxtail, Green plant response rating [22]
90: Plant response rating, Kochia [5, 29] | Plant response rating, Barnyardgrass [7, 29] | Plant response rating, Oat, Wild [9, 29] | Plant response rating, Ryegrass, Italian [11, 28] | Kochia plant response rating [12] | Plant response rating, Pigweed, Palmer [14, 28] | Plant response rating, Pigweed, Palmer [14, 29] | Plant response rating, Blackgrass [15, 29] | Plant response rating, Corn [17, 29] | Plant response rating, Blackgrass [18] | Plant response rating, Ragweed [19] | Plant response rating, Ryegrass, Italian [21] | Plant response rating, Wheat [25, 29] | Plant response rating, Horseweed [27, 29]
60: Barnyardgrass plant response rating [1] | Soybean plant response rating [13] | Blackgrass plant response rating [18] | Plant response rating, Horseweed [27, 28]
15: Plant response rating, Barnyardgrass (Flood) [23]
10: Corn plant response rating [10]
30: Plant response rating, Corn [10]
85: Plant response rating, Ducksalad (Flood) [24]

COC[C@H]1CN(C(=O)c2cc(-n3cnc(C(C)(C)C)n3)ccc2OC)c2cccc(Cl)c2O1 [Compound 230]
20: Plant response rating, Oat, Wild [9, 28] | Corn plant response rating [10]
30: Wheat plant response rating [16]
40: Plant response rating, Blackgrass [15, 28] | Plant response rating, Wheat [25, 28] | Plant response rating, Horseweed [27, 28]
60: Barnyardgrass plant response rating [1] | Plant response rating, Barnyardgrass [7, 28] | Plant response rating, Ryegrass, Italian [11, 28] | Plant response rating, Corn [17, 28] | Ragweed plant response rating [19]
80: Ryegrass, Italian plant response rating [21]
70: Blackgrass plant response rating [18] | Plant response rating, Ducksalad (Flood) [24]
0: Kochia plant response rating [12]
90: Plant response rating, Kochia [5, 28] | Soybean plant response rating [13] | Plant response rating, Ragweed [20, 28]
50: Oat, Wild plant response rating [8]
15: Plant response rating, Barnyardgrass (Flood) [23]
100: Plant response rating, Soybean [2, 28] | Plant response rating, Galium [3, 28] | Pigweed, Palmer plant response rating [4] | Plant response rating, Pigweed, Palmer [14, 28] | Foxtail, Green plant response rating [22]
98: Plant response rating, Sedge, Umbrella (Flood) [6]

COC(=O)N(C)c1ncn(-c2cccc(C(=O)N3C[C@H](C)Oc4c(C)cccc43)c2)n1 [Compound 300]
0: Plant response rating, Sedge, Umbrella (Flood) [6] | Plant response rating, Barnyardgrass (Flood) [23] | Plant response rating, Ducksalad (Flood) [24] | Plant response rating, Rice (Flood) [26]
